Assay [1] deals with tubulin. The experiment in a line: Tubulin polymerization assay. Format: biochemical, bovine. As to conditions: earlier finding, background section; read-out: IC50, inhibitor of tubulin polymerization.
In assay [2] the test system is tubulin. In words: Colchicine binding assay. Set-up: species or system bovine. To be noted: for ICB (% Inhibition) (inhibition of colchicine binding): evaluated only when polymerization IC50 ≤ 1 μM, 5.0 μM inhibitor, 5.0 μM [3H]colchicine, 1.0 μM tubulin. The procedure: Electrophoretically homogeneous bovine brain tubulin was purified as described in E. Hamel, et al. Biochemistry 23:4173 (1984). Combretastatin A-4 was a generous gift of Dr. G. R Pettit, Arizona State University.
Incubation was for 20 min at 37° C. Each reaction mixture was filtered under reduced vacuum through a stack of two DEAE-cellulose paper filters, washed with water, and radioactivity quantitated in a liquid scintillation counter.
[…]. with 36' vs. 33'-35', and with 46' vs. 43'-45').

Assay [3] concerns central nervous system, lung, ovarian, colon, and renal cancers and melanoma and leukemia cell lines. In words: Cytotoxicity of isolated flavonol in panels of tumor cell lines. Format: cell-based. As to conditions: in vitro. An excerpt: In the course of this groups search for novel plant-derived potent cytotoxic agents that are active against slow-growing solid tumors, we have isolated several flavonols as antitumor principles from a phytochemically and biologically heretofore uninvestigated plant, Polanisia dodecandra. […]

Assay [4] concerns NCI's 60 human tumor cell line. The experiment in a line: NCI 60 human tumor cell line in vitro screen (average / whole panel). Format: cell-based. To be noted: calculated from all cell lines tested, molar concentrations, read-out: average log GI50 (converted).
Assay [5] has as its system HL-60(TB) leukemia cell line. In words: cells. The format is cell-based. To be noted: Homo sapiens.
For assay [6], the system named is NCI-H460 non-small cell lung cancer cell line. In words: NCI in vitro screen, non-small cell lung cancer NCI-H460. As to conditions: Homo sapiens, read-out: Cytotoxicity log GI50 (converted). Format: cell-based.
For assay [7], the system named is HCT-116 colon cancer cell line. The experiment in a line: NCI in vitro screen, colon cancer HCT-116. The format is cell-based. As to conditions: Homo sapiens; HCT-1.16 (head); HCT-116 (footnote); read-out: Cytotoxicity log GI50 (converted).
Assay [8] concerns SF-295 CNS cancer cell line. The experiment in a line: NCI in vitro screen, CNS cancer SF-295. As to conditions: Homo sapiens, read-out: Cytotoxicity log GI50 (converted). Format: cell-based.
The test system of assay [9] is U-251 CNS cancer cell line. The experiment in a line: NCI in vitro screen, CNS cancer U-251. The format is cell-based. To be noted: Homo sapiens, read-out: Cytotoxicity log GI50 (converted).
Assay [10] concerns SK-MEL-5 melanoma cell line. The experiment in a line: NCI in vitro screen, melanoma SK-MEL-5. The format is cell-based. As to conditions: Homo sapiens, read-out: Cytotoxicity log GI50 (converted).
For assay [11], the system named is OVCAR-3 ovarian cancer cell line. In words: NCI in vitro screen, ovarian cancer OVCAR-3. Format: cell-based. To be noted: Homo sapiens, read-out: Cytotoxicity log GI50 (converted).
In assay [12] the test system is 786-0 renal cancer cell line. The experiment in a line: NCI in vitro screen, renal cancer 786-0. The format is cell-based. As to conditions: Homo sapiens, read-out: Cytotoxicity log GI50 (converted).
Assay [13] concerns PC-3 prostate cancer cell line. The experiment in a line: NCI in vitro screen, prostate cancer PC-3. Format: cell-based. To be noted: Homo sapiens, read-out: Cytotoxicity log GI50 (converted).
Assay [14] concerns MDA-MB-435 breast cancer cell line. In words: NCI in vitro screen, breast cancer MDA-MB-435. Format: cell-based. As to conditions: Homo sapiens.
Assay [15] relates to MDA-N breast cancer cell line. The experiment in a line: NCI in vitro screen, breast cancer MDA-N. The format is cell-based. As to conditions: Homo sapiens.
Another assay deals with NCI-H226 cell line. In words: NCI in vitro screen, NCI-H226. Format: cell-based. To be noted: Homo sapiens, range over four compounds, read-out: log TGI. From the text: Compounds 41-51 and 53-68 were submitted to NCI and assayed in the NCI's in vitro disease-oriented antitumor screen, which involves determination of a test compound's effects on the growth of approximately 60 human tumor cell lines. See, M. R. Boyd, et al. In Cancer: Principles and Practice of Oncology Updates; De Vita, V. T., Hellman, S., Rosenberg, S. A., Eds; J. B. Lippincoft: Philadelphia, pp 1-12 (1989); and A. Monks, et al. J. Natl. Cancer Inst. 83:757 (1991). These lines include leukemia, non-small cell lung, colon, central nervous system (CNS), melanoma, ovarian, renal, prostate, and breast cancers.

The mark [16] stands for this setting: range over four compounds and two cell lines, read-out: log TGI.
Where [17] appears, read: read-out: Cytotoxicity log GI50 (converted).

One may read the IC50 as the concentration needed to halve the response being measured. As for `COc1ccc(-c2oc3c(OC)c(OC)c(OC)c(O)c3c(=O)c2OC)cc1O` [5,3'-dihydroxy-3,6,7,8,4'-pentamethoxyflavone], the IC50 in the assay with tubulin [1] was 0.83 ± 0.2 µM. Further, the “inhibition of radiolabeled colchicine binding to tubulin” value with tubulin [2] (equimolar concentration with colchicine, background section) stood at 59%. In addition, in assay [3], the GI50 values result was “low micromolar to nanomolar concentration range”.

Usually GI50 stands for the concentration giving 50% growth inhibition. For `COc1cccc(-c2cc(=O)c3cc(Cl)cnc3[nH]2)c1` [Compound 49], the GI50 is 0.0977 µM in [4]; 0.0269 µM in [5] (HL-60(TB), read-out: Cytotoxicity log GI50 (converted)); 0.0631 µM in assay [6]; 0.12 µM in [7]; 0.0603 µM in assay [8]; 0.2 µM in [9]. Moreover, the concentration for 50% growth inhibition (GI50) is 0.126 µM in [10]; 0.49 µM in assay [11]; 0.427 µM in assay [12]; 0.138 µM in assay [13]; 0.0324 µM in [14] (setting [17]); 0.0316 µM in assay [15] (setting [17]). For the same compound, the IC (TGI) was 0.0398 to 0.0646 µM in assay [5] (HL-60, H-60 cell line, range over four compounds, read-out: log TGI); 0.0214 to 0.0398 µM in [14] (setting [16]); 0.0214 to 0.0398 µM in [15] (setting [16]); 0.0759 to 0.692 µM with NCI-H226 cell line.

For the compound `COc1ccc(/C=C\c2cc(OC)c(OC)c(OC)c2)cc1O` [combretastatin A-4, Combretastatin A-4], the “ICB (% Inhibition) (inhibition of colchicine binding)” value in the assay with tubulin [2] worked out at 91 ± 2%.

Regarding `COc1cc([C@@H]2c3cc4c(cc3[C@H](O)[C@H]3COC(=O)[C@H]23)OCO4)cc(OC)c1OC` [podophyllotoxin, reference compound], in the assay on tubulin [2], the “ICB (% Inhibition) (inhibition of colchicine binding)” value is reported as 76 ± 5%.

Source of the values: patent US6229016A, “Method for treating tumors using 2-aryl-naphthyridin-4-ones” (priority 2000, dated 2001).
